# Results taken from US20180077929A1, “METHODS AND SYSTEMS FOR TREATING MEDICAL DEVICES AND FLUIDS” (priority 2016, published 2018).
# Columns and labels:
# [1] = Detection of LPS in water in presence of CaSt and EDTA and Tween 20; type: biochemical; conditions: 8330 EU spiked
# Description: Further testing was performed with addition of EDTA and Polysorbate 20 reagents to verify permanent removal of LPS/endotoxin activity, by adding EDTA and Polysorbate 20 to the extraction solutions to test for potential recovery of endotoxin activity when introduced to these two substances.
# The testing was performed in aqueous solutions with added EDTA and Polysorbate 20, with suspended CaSt present in some solutions in varying quantities. […] The tubes were vortexed for 1 minute and placed in a 37 C bath for 1 hour. The tubes were removed from the bath and again vortexed for 1 minute. The solutions were diluted and tested for endotoxin using the Kinetic Chromogenic Method for Endotoxin Quantitation, Charles River Laboratories, Charleston S.C. […] These samples were rigorously vortexed and tested using the Kinetic Chromogenic Method for Endotoxin Quantitation, Charles River Laboratories, Charleston S.C.
# [2] = Animal study: intraperitoneal endotoxin mixed with calcium stearate; type: in vivo; conditions: female rats, 4 days, endotoxin alone: severe toxicity
# Description: An animal study was conducted with 30 female rats with weights ranging from 250-300 g and acclimated for 5 days. All rats were dosed with intraperitoneal injections using 18 gauge needles. The rats were broken into 6 groups. A negative control (NC-1) dosed 5 rats with 5 mL of normal saline solution. […] A positive control (PC-1) dosed 5 rats with 2.5 million EU in a 5 mL saline solution. A second positive control (PC-2) was conducted dosing 5 rats with 5 million endotoxin units in a 5 mL normal saline solution. Two experimental test groups were conducted.
# The negative control samples also had no toxicity.
# [3] = Wound dressing (fibrin pad) testing in cyclohexane containing CaSt; type: biochemical; conditions: dressing spiked with 8.9 EU, 15 minutes in 10 mL cyclohexane with 0.1 g CaSt
# Description: A wound dressing containing dry fibrinogen and dry thrombin on an absorbable support was tested as follows. The pad was spiked with LPS and then exposed to cyclohexane containing CaSt to determine the effect on detectable LPS.
# Three 1×2 inch pieces of the dressing were spiked with endotoxin resulting in 8.9 EU of LPS. The pieces were allowed to dry for 20 minutes, then placed into 50 mL polypropylene conical tubes. 7.5 mL of LAL reagent water+2.5 mL 0.25M tris buffer was added to Tube 1. 10 mL of cyclohexane with 0.1 g of CaSt was added to Tube 2. 10 mL of cyclohexane was added to Tube 3. The tubes were closed and then placed on the bottle roller rotator machine for 15 minutes so that the tube could continuously roll and the dressing was constantly in contact with liquid.
# Tube 1 solution was then diluted and tested for endotoxin on the MCS system. The fibrin pad pieces from Tube 2 and Tube 3 were removed and placed in new tubes and extracted in 7.5 mL of LAL reagent water+2.5 mL 0.25M tris buffer. The solutions were then tested on the MCS system for endotoxin (LPS).
# [4] = Kinetics of removal of LPS with different agitation techniques and stearate salts; type: biochemical; conditions: for Endotoxin Detected: 5 mL SRW, baseline 1,502 EU; for Percent (%) Removed: SRW baseline 1,502 EU
# Description: 5 mL of SRW was added to each of the tubes. Each solution was tested for endotoxin removal after agitation based on with sonication, vortexing, or test tube rolling. Sonication samples were sonicated at each indicated time interval for 30 seconds at a magnitude of 30. Vortex samples were vortexed at each indicated time interval for 30 seconds at 2500 RPM. Rolling samples were constantly rolling at 10 rpm. The samples were tested on the MCS for endotoxin at 1 minute, 20 minutes, 40 minutes, 60 minutes, and 80 minutes.
# [5] = Suture testing in ethanol, cyclohexane, isopropanol with 1% CaSt; type: biochemical; conditions: for Endotoxin Detected: control suture 68.1 EU
# Description: Similarly to the testing above, an absorbable suture of the same type, similarly contaminated, was exposed to CaSt in three solvents (ethanol, cyclohexane, isopropanol). The suture was then tested for LPS. […] In presence of CaSt 1% suspension (CaSt could be slightly soluble in the solvents), LPS activity decreased by 75-95%.
# Sutures used were 27 inch long pieces of absorbable lactide-glycolide sutures. Endotoxin sources used were Stagnant Rain Water (SRW) and LRW (3980 EU/mL). 7 strands of suture were placed in tubing with endotoxin solution for 10 minutes at a time. The sutures were dried for 20 minutes and then placed in round bottom tubes. […] 1 suture was placed in each tube and vortexed in this solution for approximately 10 seconds. The sutures were removed and allowed to dry for 20 minutes and then placed in round bottom tubes. This was done for 6 sutures. 1 piece of suture, serving as the control, was not submerged in any solutions and placed in test tubes. 3 mL of LAL reagent water was added to each test tube, vortexed vigorously, and then placed in a hot water bath at 37° C. for 1 hour. They were then removed, vortexed vigorously, diluted, and tested on the MCS system.
# [6] = CaSt suspension 0.007 g in 5 mL
# [7] = CaSt suspension 0.007 g with 0.1M EDTA and 0.05% Tween20
# [8] = CaSt suspension 0.018 g in 5 mL
# [9] = CaSt suspension 0.018 g with 0.1M EDTA and 0.05% Tween20
# [10] = CaSt suspension 0.028 g in 5 mL
# [11] = CaSt suspension 0.028 g with 0.1M EDTA and 0.05% Tween20
substance,measurement,setting,value
Calcium Stearate,Endotoxin Detected,[1]; [6],3995 EU
same,Percent detected Endotoxin,[1]; [6],48.0%
same,Endotoxin Detected,[1]; [7],5050 EU
same,Percent detected Endotoxin,[1]; [7],60.6%
same,Endotoxin Detected,[1]; [8],1487.5 EU
same,Percent detected Endotoxin,[1]; [8],17.9%
same,Endotoxin Detected,[1]; [9],1545 EU
same,Percent detected Endotoxin,[1]; [9],18.5%
same,Endotoxin Detected,[1]; [10],235 EU
same,Percent detected Endotoxin,[1]; [10],2.8%
same,Endotoxin Detected,[1]; [11],255 EU
same,Percent detected Endotoxin,[1]; [11],3.1%
same,Results (toxicity observed),"[2]; T-1: 2,500,000 EU + 0.2 g Calcium Stearate in 5.0 mL normal saline dosed IP",No Toxicity
same,Results (toxicity observed),"[2]; T-1: 2,500,000 EU + 0.2 g Calcium Stearate in 5.0 mL normal saline dosed IP, listed as calcium stearate",no toxicity or adverse effects
same,Results (toxicity observed),"[2]; T-2: 5,000,000 EU + 0.2 g Calcium Stearate in 5.0 mL normal saline dosed IP",No Toxicity
same,Results (toxicity observed),"[2]; T-2: 5,000,000 EU + 0.2 g Calcium Stearate in 5.0 mL normal saline dosed IP, listed as calcium stearate",no toxicity or adverse effects
same,Endotoxin detected on Pad,[3],1.8 EU
same,Percent Endotoxin detected as compared to Tube 1,[3],20.2%
same,Endotoxin detected on Pad,[3]; listed as CaSt,2 EU
same,Endotoxin Detected,"[4]; Rolling, 1 minute","1,230 EU"
same,Percent (%) Removed,"[4]; Rolling, 1 minute",18.1%
same,Endotoxin Detected,"[4]; Rolling, 20 minutes","1,050 EU"
same,Percent (%) Removed,"[4]; Rolling, 20 minutes",30.1%
same,Endotoxin Detected,"[4]; Rolling, 40 minutes",630 EU
same,Percent (%) Removed,"[4]; Rolling, 40 minutes",58.1%
same,Endotoxin Detected,"[4]; Rolling, 60 minutes",637 EU
same,Percent (%) Removed,"[4]; Rolling, 60 minutes",57.6%
same,Endotoxin Detected,"[4]; Rolling, 80 minutes",451 EU
same,Percent (%) Removed,"[4]; Rolling, 80 minutes",70%
same,Endotoxin Detected,"[4]; Sonication, 1 minute",270 EU
same,Percent (%) Removed,"[4]; Sonication, 1 minute",82%
same,Endotoxin Detected,"[4]; Sonication, 20 minutes",130 EU
same,Percent (%) Removed,"[4]; Sonication, 20 minutes",91.3%
same,Endotoxin Detected,"[4]; Sonication, 40 minutes",87.5 EU
same,Percent (%) Removed,"[4]; Sonication, 40 minutes",94.2%
same,Endotoxin Detected,"[4]; Sonication, 60 minutes",56.9 EU
same,Percent (%) Removed,"[4]; Sonication, 60 minutes",96.2%
same,Endotoxin Detected,"[4]; Sonication, 80 minutes",16.4 EU
same,Percent (%) Removed,"[4]; Sonication, 80 minutes",98.9%
same,Endotoxin Detected,"[4]; Vortexing, 1 minute",451 EU
same,Percent (%) Removed,"[4]; Vortexing, 1 minute",70%
same,Endotoxin Detected,"[4]; Vortexing, 20 minutes",301 EU
same,Percent (%) Removed,"[4]; Vortexing, 20 minutes",80%
same,Endotoxin Detected,"[4]; Vortexing, 40 minutes",139 EU
same,Percent (%) Removed,"[4]; Vortexing, 40 minutes",90.7%
same,Endotoxin Detected,"[4]; Vortexing, 60 minutes",173 EU
same,Percent (%) Removed,"[4]; Vortexing, 60 minutes",88.5%
same,Percent (%) Removed,"[4]; Vortexing, 80 minutes",93.1%
same,LPS activity decreased by,"[5]; CaSt 1% suspension in ethanol, cyclohexane, isopropanol",75-95%
same,Change in Endotoxin Level,[5]; suture in Cyclohexane w/1% Calcium Stearate (0.0858 g) vs. control suture,−94.1%
same,Endotoxin Detected,[5]; suture in Cyclohexane w/1% Calcium Stearate (0.0858 g),4.02 EU
same,Change in Endotoxin Level,[5]; suture in Ethanol w/1% Calcium Stearate (0.0827 g) vs. control suture,−77.9%
same,Endotoxin Detected,[5]; suture in Ethanol w/1% Calcium Stearate (0.0827 g),15.06 EU
same,Change in Endotoxin Level,[5]; suture in Isopropanol w/1% Calcium Stearate (0.0841 g) vs. control suture,−75.6%
same,Endotoxin Detected,[5]; suture in Isopropanol w/1% Calcium Stearate (0.0841 g),16.59 EU
